Laboratory results: patent publication US20260035376A1, “COMPOSITIONS AND METHODS FOR INHIBITION OF RAS” (TheRas, Inc., priority 2022, published 2026)

What was measured:
[1] = biological target: T1, Avi-KRAS G12D (1-169) GppNHp/RAF1 RBD-3×FLAG (52-151) (Homo sapiens, UniProt P01116, G12D); experiment: Disrupting RAS-effector binding HTRF assay, Raf1 RBD-KRAS G12D-GppNHp; conditions: PPI HTRF, 50 nM Avi-KRAS G12D GppNHp, compound titration 30-0.0045 μM; read-out: Raf1 RBD-KRAS G12D-GppNHp disruption
T1 construct: 50 nM Avi-KRAS G12D (1-169) GppNHp/RAF1 RBD-3×FLAG (52-151)
T1 sequence (P01116 1-169 isoform P01116-2 G12D limits assumed): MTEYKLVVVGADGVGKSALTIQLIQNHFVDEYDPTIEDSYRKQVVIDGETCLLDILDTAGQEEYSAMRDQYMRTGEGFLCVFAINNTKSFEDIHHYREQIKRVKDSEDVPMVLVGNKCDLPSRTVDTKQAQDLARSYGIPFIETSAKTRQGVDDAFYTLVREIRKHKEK
Method: (§1) A protein:protein interaction (PPI) Homogeneous Time Resolved Fluorescence (HTRF) assay was used to determine the effectiveness of compounds of the present disclosure in disrupting KRAS protein and effector RAF1 binding.
(§2) The HTRF assay used the following reagents and proteins: (i) 50 nM Avi-KRAS G12D (1-169) GppNHp/RAF1 RBD-3×FLAG (52-151); (ii) 50 nM Avi-KRAS G12R (1-169) GppNHp/RAF1 RBD-3×FLAG (52-151); (iii) 50 nM Avi-KRAS G12V (1-169) GppNHp/RAF1 RBD-3×FLAG (52-151), (iv) 50 nM Avi-KRAS WT (1-169) GppNHp/RAF1 RBD-3×FLAG (52-151); and (v) 75 nM Avi-RAF1 RBD-3×FLAG. The assay buffer included: 50 mM Tris pH 7.5, 100 mM NaCl, 5 mM MgCl2, 0.1% BSA, […], 10% DMSO. The bead buffer included: 50 mM Tris pH 7.5, 0.01% o Tween 20. Assay volume of 20 μL was used in a 384 well plate-low volume format. Compound titration: 30-0.0045 μM, 3× dilution series.
(§3) The HTRF assay employed the following protocol:
(§4) Compounds were dispensed in assay plate (384-well, Grenier Bione #784075) using Echo (model 555) with dose response settings: 200 nL final volume, titration from 30 μM as a 10-point dilution series. Protein mix was prepared in assay buffer, and dispensed on plates, 10 μL per well, then incubated for 1 h at room temperature, with 700 rpm shaking. Reagents mix was prepared and dispensed on plates, 10 μL per well, then incubated for 1 h at room temperature, with 700 rpm shaking.
(§5) Plates were analyzed on an Envision plate reader using the following setting: Excitation 320 nm, Bandwidth 75 nM; Emission 615 nm, Bandwidth 85 nM, Gain 100%, Flashes 100, Lag 60 μs. Data were reported as percentage of activity, with DMSO as 100%. Data were plotted and analyzed using Prism 8.
(§6) The biochemical Raf1-KRAS G12D/G12R/G12V/WT-GppNHP disruption assay IC50 of selected compounds described herein are shown in Table 4.

[2] = biological target: T2, Avi-KRAS G12V (1-169) GppNHp/RAF1 RBD-3×FLAG (52-151) (Homo sapiens, UniProt P01116, G12V); experiment: Disrupting RAS-effector binding HTRF assay, Raf1 RBD-KRAS G12V-GppNHp; conditions: PPI HTRF, 50 nM Avi-KRAS G12V GppNHp, compound titration 30-0.0045 μM; read-out: Raf1 RBD-KRAS G12V-GppNHp disruption
T2 construct: 50 nM Avi-KRAS G12V (1-169) GppNHp/RAF1 RBD-3×FLAG (52-151)
T2 sequence (P01116 1-169 isoform P01116-2 G12V limits assumed): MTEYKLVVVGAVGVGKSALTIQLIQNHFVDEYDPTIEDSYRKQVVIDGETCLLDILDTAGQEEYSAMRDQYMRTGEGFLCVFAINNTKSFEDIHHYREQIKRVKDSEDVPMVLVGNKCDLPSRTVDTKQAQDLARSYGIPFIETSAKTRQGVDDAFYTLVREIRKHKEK
Method: as §1, §2, §3, §4, §5, §6

[3] = biological target: T3, Avi-KRAS G12R (1-169) GppNHp/RAF1 RBD-3×FLAG (52-151) (Homo sapiens, UniProt P01116, G12R); experiment: Disrupting RAS-effector binding HTRF assay, Raf1 RBD-KRAS G12R-GppNHp; conditions: PPI HTRF, 50 nM Avi-KRAS G12R GppNHp, compound titration 30-0.0045 μM; read-out: Raf1 RBD-KRAS G12R-GppNHp disruption
T3 construct: 50 nM Avi-KRAS G12R (1-169) GppNHp/RAF1 RBD-3×FLAG (52-151)
T3 sequence (P01116 1-169 isoform P01116-2 G12R limits assumed): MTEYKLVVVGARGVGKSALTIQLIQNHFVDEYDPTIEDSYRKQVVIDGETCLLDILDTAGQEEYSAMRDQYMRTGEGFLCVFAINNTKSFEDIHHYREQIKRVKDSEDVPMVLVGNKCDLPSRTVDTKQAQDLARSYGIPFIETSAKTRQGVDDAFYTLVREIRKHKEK
Method: as §1, §2, §3, §4, §5, §6

[4] = biological target: T4, Avi-KRAS WT (1-169) GppNHp/RAF1 RBD-3×FLAG (52-151) (Homo sapiens, UniProt P01116); experiment: Disrupting RAS-effector binding HTRF assay, Raf1 RBD-KRAS WT-GppNHp; conditions: PPI HTRF, 50 nM Avi-KRAS WT GppNHp, compound titration 30-0.0045 μM; read-out: Raf1 RBD-KRAS WT-GppNHp disruption
T4 construct: 50 nM Avi-KRAS WT (1-169) GppNHp/RAF1 RBD-3×FLAG (52-151)
T4 sequence (P01116 1-169 isoform P01116-2 limits assumed): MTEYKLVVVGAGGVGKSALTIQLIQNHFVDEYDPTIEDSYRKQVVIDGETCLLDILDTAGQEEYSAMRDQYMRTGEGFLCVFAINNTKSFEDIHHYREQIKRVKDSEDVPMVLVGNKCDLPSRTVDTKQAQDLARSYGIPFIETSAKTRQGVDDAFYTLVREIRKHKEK
Method: as §1, §2, §3, §4, §5, §6

[5] = system: KRAS G12D protein/effector signaling in GP2d cells; experiment: Cell-based pERK HTRF assay in GP2d cell; conditions: 1 h, 60 min incubation
Method: A pERK assay (Perkin Elmer) was used to determine the effectiveness of compounds in disrupting KRAS G12D protein/effector signaling in cells.
On Day 1, cells (GP2d) were seeded into 96-well plates at 3×10^4 cells/well in 80 μL complete growth media (DMEM, 10% FBS).
(§7) On Day 2, cells were treated with compounds at 0.25% DMSO. The source plate was created with compounds diluted in media at 5-fold the final assay concentration. The compounds were run in a 9-point concentration curve starting at 1 M, with a half-log dilution between concentrations. 20 μL was transferred onto the cell plates (final volume in wells was 100 μL). Plates were harvested after 60 min incubation by aspirating media and adding kit-supplied 1× supplemented lysis buffer to all wells (50 μL per well). Plates were then placed on a plate shaker and incubated at 850 rpm for an additional 30 min.
Antibody mixture solution was prepared by diluting aliquoted d2 and Eu Cryptate antibodies 1:20 in kit supplied detection buffer, and mixing the diluted antibodies solutions (1:1 v:v). 4 μL of this solution was then added to a 384-well detection plate (Perkin Elmer; 6008230).
(§8) Samples were homogenized by pipetting up and down and then transferred (16 μL of cell lysates) from the 96-well cell culture plate to two wells of the HTRF 384-well detection plate containing the antibody solution. Plates were centrifuged (524 g for 1 min) and allowed to incubate between 4 and 24 h at room temperature. Maximum signal was reached after 4 h incubation time and remained stable over a period of 24 hours. Therefore, readings could be made between 4 and 24 h of incubation. Plates were centrifuged again (524 g for 1 min), then analyzed on the EnVision plate reader using the following settings: Excitation 320 nm, Bandwidth 75 nm; Emission 615 nm, Bandwidth 85 nm; Gain 100%; Flashes 100; Lag 60 μs.

[6] = system: KRAS G12V protein/effector signaling in SW620 cells; experiment: Cell-based pERK HTRF assay in SW620 cell; conditions: Homo sapiens, SW-620, 1 h incubation
Method: pERK assay (Perkin Elmer) was used to determine the effectiveness of compounds in disrupting KRAS G12V protein/effector signaling in cells.
On Day 1, cells (SW620) were seeded into 96-well plates at 3×10^4 cells/well in 80 μL complete growth media (DMEM, 10% FBS).
as §7, with “10 μM,” for “1 M,”, “1 h” for “60 min”
Antibody mixture solution was prepared by diluting aliquoted d2 and Eu Cryptate antibodies 1:20 in kit supplied detection buffer, and mixing the diluted antibodies solutions (1:1 v:v). Four μL of this solution was then added to a 384-well detection plate (Perkin Elmer; 6008230).
as §8

| SMILES | IC50 [1] [nM] | IC50 [2] [µM] | IC50 [3] [µM] | IC50 [4] [nM] | IC50 [5] [nM] | IC50 [6] [µM] |
| --- | --- | --- | --- | --- | --- | --- |
| CC(=O)Nc1nc(N2CC3CCC(C2)N3)c2cc(C(F)(F)F)c(-c3ccc(F)c4sc(N)c(C#N)c34)c(F)c2n1 [Compound 28] | 1000 to 10000 | > 10 | > 10 | > 10000 | ≤ 100 | > 10 |
| N#Cc1c(N)sc2c(F)ccc(-c3c(C(F)(F)F)cc4c(N5CC6CCC(C5)N6)nc(OC[C@H](O)CO)nc4c3F)c12 [Compound 29] | 100 to 1000 | 1 to 10 | 1 to 10 | 1000 to 10000 | ≤ 100 | 1 to 10 |
| N#Cc1c(N)sc2c(F)ccc(-c3c(C(F)(F)F)cc4c(N5CC6CCC(C5)N6)nc(OCC(CO)CO)nc4c3F)c12 [Compound 30] | 100 to 1000 | 1 to 10 | 1 to 10 | 100 to 1000 | ≤ 100 | > 10 |
| N#Cc1c(N)sc2c(F)ccc(-c3c(C(F)(F)F)cc4c(N5CC6CCC(C5)N6)nc(OCCCO)nc4c3F)c12 [Compound 31] | 100 to 1000 | > 10 | > 10 | 1000 to 10000 | ≤ 100 | > 10 |
| N#Cc1c(N)sc2c(F)ccc(-c3c(C(F)(F)F)cc4c(N5CC6CCC(C5)N6)nc(OCCO)nc4c3F)c12 [Compound 32] | 100 to 1000 | > 10 | > 10 | 1000 to 10000 | ≤ 100 | > 10 |
| CN1C[C@H](COc2nc(N3CC4CCC(C3)N4)c3cc(C(F)(F)F)c(-c4ccc(F)c5sc(N)c(C#N)c45)c(F)c3n2)CC1=O [Compound 33] | 100 to 1000 | > 10 | > 10 | 1000 to 10000 | ≤ 100 | > 10 |
| N#Cc1c(N)sc2c(F)ccc(-c3c(C(F)(F)F)cc4c(N5CC6CCC(C5)N6)nc(OC[C@@H](O)CO)nc4c3F)c12 [Compound 34] | 100 to 1000 | 1 to 10 | > 10 | 1000 to 10000 | 100 to 1000 | > 10 |
| COc1c(Cl)c(-c2ccc(F)c3sc(N)c(C#N)c23)c(F)c2ncnc(N3CC4CCC(C3)N4)c12 [Compound 35] | > 10000 | > 10 | > 10 | > 10000 | 100 to 1000 | > 10 |
| COCCCOc1nc(N2CC3CCC(C2)N3)c2cc(C(F)(F)F)c(-c3ccc(F)c4sc(N)c(C#N)c34)c(F)c2n1 [Compound 36] | 100 to 1000 | > 10 | > 10 | 1000 to 10000 | ≤ 100 | > 10 |
| N#Cc1c(N)sc2c(F)ccc(-c3c(C(F)(F)F)cc4c(N5C[C@H]6CC[C@@H](C5)N6)nc(OCC5CCOCC5)nc4c3F)c12 [Compound 37, 4-(4-((1R,5S)-3,8-diazabicyclo[3.2.1]octan-3-yl)-8-fluoro-2-((tetrahydro-2H-pyran-4-yl)methoxy)-6-(trifluoromethyl)quinazolin-7-yl)-2-amino-7-fluorobenzo[b]thiophene-3-carbonitrile] | 100 to 1000 | > 10 | > 10 | 1000 to 10000 | ≤ 100 | > 10 |
| N#Cc1c(N)sc2c(F)ccc(-c3c(C(F)(F)F)cc4c(N5CC6CCC(C5)N6)nc(OC[C@@H]5COCCO5)nc4c3F)c12 [Compound 38] | 1000 to 10000 | > 10 | > 10 | 1000 to 10000 | ≤ 100 | > 10 |
| N#Cc1c(N)sc2c(F)ccc(-c3c(C(F)(F)F)cc4c(N5CC6CCC(C5)N6)nc(OC[C@H]5COCCO5)nc4c3F)c12 [Compound 40] | 100 to 1000 | 1 to 10 | 1 to 10 | 100 to 1000 | ≤ 100 | > 10 |
| N#Cc1c(N)sc2c(F)ccc(-c3c(C(F)(F)F)cc4c(N5CC6CCC(C5)N6)nc(OCCCCO)nc4c3F)c12 [Compound 41] | 100 to 1000 | > 10 | > 10 | 1000 to 10000 | ≤ 100 | > 10 |
